# Columns and labels:
# [1] = cited from earlier work
# [2] = dissolution in aqueous solution by adjusting the pH; type: physicochemical; details: pH of the aqueous solution adjusted to ~6.6 (6.5-6.7) or less
# From the text: The natural pH of tear fluid is 7.4; however, discomfort for the user will not be felt as long as the pH of the administered medication stays in the range of 6.6-7.8 (Sampath Kumar et al., “Recent Challenges and Advances in Ophthalmic Drug Delivery System,” in The Pharma Innovation, Vol. 1, No. 4 (2012)). Others administer eye drops at a pH of 5.5 and find this pH to be optimal.
# [3] = cited from earlier work; remark: listed apart in the source
compound,measurement,setting,value
"OCCN(CCO)c1nc(N2CCCCC2)c2nc(N(CCO)CCO)nc(N3CCCCC3)c2n1 [Dipyridamole, dipyridamole]",solubility in methanol,[1],very soluble
same,dissolution in the aqueous solution,[2],fully dissolves
same,water solubility,"[3]; Meylan, W M ET AL. (1996)",8.17 µg/mL
same,solubility in water,[3]; water,practically insoluble

# — patent US10322129B2, “Therapeutic compositions containing dipyridamole, treatment packs and kits including such compositions and methods for producing same” (O.D. Ocular Discovery Ltd., priority 2015, dated 2019)
